In patent US8835476B2, “Synthesis of novel antimicrobials” (priority 2005, dated 2014):
Converted amounts (≈) assume the structure as drawn. Like-named read-outs stand apart in the source and are kept apart here.

Columns and labels:
Assay type in all cases: cell-based
[1] = test system: A. anitratus ATCC 19606; assay: Broth microdilution MIC, ATCC strains; conditions: Acinetobacter calcoaceticus, ATCC19606; A. anitratus ATCC 19606; read-out: MIC (growth inhibition, microdilution method)
Text: (§1) All clinical isolates tested were from The North American Urinary Tract Infection Collaborative Alliance (NAUTICA) which is a UTI surveillance study involving 40 medical centres (30 from the US and 10 from Canada). Each centre submitted up to 50 consecutive outpatient midstream urine isolates. All isolates were deemed significant urinary tract pathogens by individual laboratory criteria and identified to the species level by each laboratory's existing protocol. Isolates were transported to the coordinating laboratory (Health Sciences Centre, Winnipeg, Canada) on charcoal swabs. Only one isolate per patient was accepted. Upon receipt, isolates were cultured by the coordinating laboratory, stocked in skim milk, and stored at −80° C. awaiting reference antibiotic susceptibility testing. Elementary demographic information was also compiled for each isolate. Isolates were selected randomly from the above pool to represent 18 different species of Enterobacteriaceae and non-Enterobacteriaceae. An average of 5 strains of each species were tested for a total of 93 organisms. In addition, 23 reference (ATCC) [both gram negative and gram positive] strains were tested.
(§2) Susceptibilities to the compounds were determined using the National Committee for Clinical Laboratory Standards (NCCLS) M7-A6 broth microdilution method. […] DMSO controls were incorporated into the panel to mimic the quantity of DMSO used in dissolving some of the compounds at the higher concentrations. Each final panel well volume was 100 μl with a bacterial inoculum of 5×10^5 colony forming units (CFU)/ml. Panels were read following 16 to 20 hours of incubation at 35° C. in ambient air. The minimum inhibitory concentration (MIC) was defined as the lowest concentration of antimicrobial inhibiting visible growth. Quality control (QC) was performed using four ATCC QC organisms that were run with every batch set up to insure reproducibility.

[2] = test system: B. cepacia ATCC 25416; assay: Broth microdilution MIC, ATCC strains; conditions: Burkholderia cepacia, ATCC25416; B. cepacia ATCC 25416; read-out: MIC (growth inhibition, microdilution method)
Text: as §1, §2

[3] = test system: E. aerogenes ATCC 13048; assay: Broth microdilution MIC, ATCC strains; conditions: Klebsiella aerogenes, ATCC13048; E. aerogenes ATCC 13048; read-out: MIC (growth inhibition, microdilution method)
Text: as §1, §2

[4] = test system: E. cloacae ATCC 23355; assay: Broth microdilution MIC, ATCC strains; conditions: Enterobacter cloacae, ATCC23355; E. cloacae ATCC 23355; read-out: MIC (growth inhibition, microdilution method)
Text: as §1, §2

[5] = test system: E. coli ATCC 25922; assay: Broth microdilution MIC, ATCC strains; conditions: Escherichia coli, ATCC25922, E. coli ATCC 25922; read-out: MIC (growth inhibition, microdilution method)
Text: as §1, §2

[6] = test system: E. faecalis ATCC 29212; assay: Broth microdilution MIC, ATCC strains; conditions: Enterococcus faecalis, read-out: MIC (growth inhibition, microdilution method)
Text: as §1, §2

[7] = test system: E. faecium ATCC 35667; assay: Broth microdilution MIC, ATCC strains; conditions: Enterococcus faecium, ATCC35667, read-out: MIC (growth inhibition, microdilution method)
Text: as §1, §2

[8] = test system: K. oxytoca ATCC 49131; assay: Broth microdilution MIC, ATCC strains; conditions: Klebsiella oxytoca, ATCC49131; K. oxytoca ATCC 49131; read-out: MIC (growth inhibition, microdilution method)
Text: as §1, §2

[9] = test system: K. pneumoniae ATCC 13883; assay: Broth microdilution MIC, ATCC strains; conditions: Klebsiella pneumoniae, ATCC13883; K. pneumoniae ATCC 13883; read-out: MIC (growth inhibition, microdilution method)
Text: as §1, §2

[10] = test system: MRSA ATCC 33591; assay: Broth microdilution MIC, ATCC strains; conditions: Staphylococcus aureus; MRSA ATCC 33591; read-out: MIC (growth inhibition, microdilution method)
Text: as §1, §2

[11] = test system: P. mirabilis ATCC 29245; assay: Broth microdilution MIC, ATCC strains; conditions: Proteus mirabilis, ATCC29245; P. mirabilis ATCC 29245; read-out: MIC (growth inhibition, microdilution method)
Text: as §1, §2

[12] = test system: P. vulgaris ATCC 49132; assay: Broth microdilution MIC, ATCC strains; conditions: Proteus vulgaris, ATCC49132; P. vulgaris ATCC 49132; read-out: MIC (growth inhibition, microdilution method)
Text: as §1, §2

[13] = test system: Pr. stuartii ATCC 33672; assay: Broth microdilution MIC, ATCC strains; conditions: Providencia stuartii, ATCC33672; Pr. stuartii ATCC 33672; read-out: MIC (growth inhibition, microdilution method)
Text: as §1, §2

[14] = test system: Ps. aeruginosa ATCC 27853; assay: Broth microdilution MIC, ATCC strains; conditions: Pseudomonas aeruginosa, ATCC27853; Ps. aeruginosa ATCC 27853; read-out: MIC (growth inhibition, microdilution method)
Text: as §1, §2

[15] = test system: S. aureus ATCC 29213; assay: Broth microdilution MIC, ATCC strains; conditions: Staphylococcus aureus, ATCC29213, S. aureus ATCC 29213; read-out: MIC (growth inhibition, microdilution method)
Text: as §1, §2

[16] = test system: S. epidermidis ATCC 14990; assay: Broth microdilution MIC, ATCC strains; conditions: Staphylococcus epidermidis, ATCC14990; S. epidermidis ATCC 14990; read-out: MIC (growth inhibition, microdilution method)
Text: as §1, §2

[17] = test system: S. liquefaciens ATCC 27592; assay: Broth microdilution MIC, ATCC strains; conditions: S. liquefaciens ATCC 27592; read-out: MIC (growth inhibition, microdilution method)
Text: as §1, §2

[18] = test system: S. maltophilia ATCC 13637; assay: Broth microdilution MIC, ATCC strains; conditions: Stenotrophomonas maltophilia, ATCC13637; S. maltophilia ATCC 13637; read-out: MIC (growth inhibition, microdilution method)
Text: as §1, §2

[19] = test system: S. marcescens ATCC 8100; assay: Broth microdilution MIC, ATCC strains; conditions: Serratia marcescens, ATCC8100; S. marcescens ATCC 8100; read-out: MIC (growth inhibition, microdilution method)
Text: as §1, §2

[20] = test system: S. saprophyticus ATCC 15305; assay: Broth microdilution MIC, ATCC strains; conditions: Staphylococcus saprophyticus, ATCC15305; S. saprophyticus ATCC 15305; read-out: MIC (growth inhibition, microdilution method)
Text: as §1, §2

[21] = test system: S. simulans ATCC 27848; assay: Broth microdilution MIC, ATCC strains; conditions: Staphylococcus simulans, ATCC27848, read-out: MIC (growth inhibition, microdilution method)
Text: as §1, §2

[22] = test system: S. warneri ATCC 27836; assay: Broth microdilution MIC, ATCC strains; conditions: Staphylococcus warneri, ATCC27836; S. warneri ATCC 27836; read-out: MIC (growth inhibition, microdilution method)
Text: as §1, §2

[23] = test system: P. rettgeri CAP; assay: Broth microdilution MIC, reference strains; conditions: Providencia rettgeri; P. rettgeri (CAP in Table 1); read-out: MIC (growth inhibition, microdilution method)
Text: as §1, §2

[24] = test system: A. baumanii clinical isolates; assay: Broth microdilution MIC, clinical isolate strains (NAUTICA); conditions: clinical isolates, one table line per isolate; unit assumed
Text: as §1, §2

[25] = test system: B. cepacia clinical isolates; assay: as above; conditions: clinical isolates, one table line per isolate; unit assumed
Text: as §1, §2

[26] = test system: C. koseril clinical isolates; assay: as above; conditions: clinical isolates, one table line per isolate; unit assumed
Text: as §1, §2

[27] = test system: E. aerogenes clinical isolates; assay: as above; conditions: clinical isolates, one table line per isolate; unit assumed
Text: as §1, §2

[28] = test system: M. morganii clinical isolates; assay: as above; conditions: clinical isolates, one table line per isolate; unit assumed
Text: as §1, §2

[29] = test system: S. liquifaciens clinical isolates; assay: as above; conditions: clinical isolates, one table line per isolate; unit assumed
Text: as §1, §2

[30] = test system: S. maltophilia clinical isolates; assay: as above; conditions: clinical isolates, one table line per isolate; unit assumed
Text: as §1, §2

[31] = test system: S. marcescens clinical isolates; assay: as above; conditions: clinical isolates, one table line per isolate; unit assumed
Text: as §1, §2

[32] = test system: E. cloacae clinical isolates; assay: as above; conditions: clinical isolates, one table line per isolate; unit assumed
Text: as §1, §2

[33] = ATCC29212, E. faecalis ATCC 29212
[34] = ATCC29212, E. faecalis, ATCC number not given

SMILES	MIC [1] [µg/mL]	MIC [2] [µg/mL]	MIC [3] [µg/mL]	MIC [4] [µg/mL]	MIC [5] [µg/mL]	MIC [6, 33] [µg/mL]	MIC [6, 34] [µg/mL]	MIC [7] [µg/mL]	MIC [8] [µg/mL]	MIC [9] [µg/mL]	MIC [10] [µg/mL]	MIC [11] [µg/mL]	MIC [12] [µg/mL]	MIC [13] [µg/mL]	MIC [14] [µg/mL]	MIC [15] [µg/mL]	MIC [16] [µg/mL]	MIC [17] [µg/mL]	MIC [18] [µg/mL]	MIC [19] [µg/mL]	also measured
Cn1nnnc1-c1cc(C(=O)O)sc1C(=O)O [DNM-113, 3-(1-Methyl-1H-tetrazol-5-yl)-thiophene-2,5-dicarboxylic acid]	8 (≈ 31.5 µM)	8 (≈ 31.5 µM)	8 (≈ 31.5 µM)	8 (≈ 31.5 µM)	8 (≈ 31.5 µM)	8 (≈ 31.5 µM)	8 (≈ 31.5 µM)	8 (≈ 31.5 µM)	8 (≈ 31.5 µM)	8 (≈ 31.5 µM)	64 (≈ 252 µM)	16 (≈ 62.9 µM)	16 (≈ 62.9 µM)	16 (≈ 62.9 µM)	8 (≈ 31.5 µM)	32 (≈ 126 µM)	8 (≈ 31.5 µM)	8 (≈ 31.5 µM)	8 (≈ 31.5 µM)	8 (≈ 31.5 µM)	MIC [20]: 8 µg/mL (≈ 31.5 µM); MIC [21]: 32 µg/mL (≈ 126 µM); MIC [22]: 16 µg/mL (≈ 62.9 µM); MIC [23]: 8 µg/mL (≈ 31.5 µM); MIC, A. BAUMANII [24]: 8 µg/mL (≈ 31.5 µM); MIC, B. CEPACIA [25]: 8 µg/mL (≈ 31.5 µM); MIC, C. KOSERI [26]: 8 µg/mL (≈ 31.5 µM); MIC, E. AEROGENES [27]: 8 µg/mL (≈ 31.5 µM); MIC, M. MORGANII [28]: 8 µg/mL (≈ 31.5 µM); MIC, S. LIQUEFACIENS [29]: 8 µg/mL (≈ 31.5 µM); MIC, S. MALTOPHILIA [30]: 8 µg/mL (≈ 31.5 µM); MIC, S. MARCESCENS [31]: 8 µg/mL (≈ 31.5 µM)
COC(=O)c1cc(-c2nnnn2C)c(C(=O)OC)s1 [DNM-115, 3-(1-Methyl-1H-tetrazol-5-yl)-thiophene-2,5-dicarboxylic acid dimethyl ester]	8 (≈ 28.3 µM)	8 (≈ 28.3 µM)	8 (≈ 28.3 µM)	> 16	8 (≈ 28.3 µM)	8 (≈ 28.3 µM)	8 (≈ 28.3 µM)	8 (≈ 28.3 µM)	8 (≈ 28.3 µM)	8 (≈ 28.3 µM)	> 16	16 (≈ 56.7 µM)	16 (≈ 56.7 µM)	> 16	8 (≈ 28.3 µM)	> 16	8 (≈ 28.3 µM)	8 (≈ 28.3 µM)	8 (≈ 28.3 µM)	8 (≈ 28.3 µM)	MIC [20]: 8 µg/mL (≈ 28.3 µM); MIC [21]: > 16 µg/mL; MIC [22]: > 16 µg/mL; MIC [23]: 16 µg/mL (≈ 56.7 µM); MIC, A. BAUMANII [24]: 8 µg/mL (≈ 28.3 µM); MIC, B. CEPACIA [25]: 8 µg/mL (≈ 28.3 µM); MIC, E. CLOACAE [32]: > 16 µg/mL; MIC, S. MALTOPHILIA [30]: 8 µg/mL (≈ 28.3 µM)
